Measured values reported in ChEMBL document CHEMBL1139346, “Discovery of innovative small molecule therapeutics” (2009).

What was measured:
[1] = test system: Rattus norvegicus; experiment: Neuroprotective effect in rat transient mCAO focal ischemia model assessed as reduction of infarct volume at 10 mg/kg relative to control; type: functional; design: scale not given: the % may be the effect or the level left
[2] = test system: Rattus norvegicus; experiment: Neuroprotective effect in rat transient mCAO focal ischemia model assessed as reduction of infarct volume at 30 mg/kg relative to control; type: functional; design: scale not given: the % may be the effect or the level left

CO[C@@H]1C/C(C)=C\[C@H]2CC[C@@H]([C@@H](C)C[C@@H](C)C(=O)[C@H](OC)[C@H](O)/C(C)=C/[C@@H](C)C(=O)C[C@@H]([C@H](C)C[C@@H]3CC[C@@H](O)[C@H](OC)C3)OC(=O)[C@@H]3CCCCN3C(=O)C(=O)[C@]3(O)O[C@@H](CC[C@H]3C)C1)N(c1ccccc1)O2 [ILS-920]
Activity [1]: 23%
Activity [2]: 36%
